Experimental data from ChEMBL document CHEMBL1143622 (J Med Chem, 2005).

Experiments:
[1] = Inhibitory activity against Coagulation factor X
[2] = biological target: Integrin alpha-IIb/beta-3 (Homo sapiens, UniProt P05106+P08514); experiment: Inhibitory activity against binding of Fibrinogen to thrombocyte alpha IIb beta-3 integrin; type: protein-complex assay
[3] = Inhibitory activity against trypsin
[4] = Inhibitory activity against thrombin
[5] = biological target: Thrombin & trypsin (Homo sapiens) (UniProt P00734+P07477+P07478+P35030); experiment: Selectivity against Thrombin to that of trypsin; type: protein assay
[6] = Inhibitory activity against thrombocyte aggregation induced by collagen; type: functional
[7] = Inhibitory activity against thrombocyte aggregation induced by ADP; type: functional

Chain of Integrin alpha-IIb/beta-3 (P05106 27-788 limits assumed): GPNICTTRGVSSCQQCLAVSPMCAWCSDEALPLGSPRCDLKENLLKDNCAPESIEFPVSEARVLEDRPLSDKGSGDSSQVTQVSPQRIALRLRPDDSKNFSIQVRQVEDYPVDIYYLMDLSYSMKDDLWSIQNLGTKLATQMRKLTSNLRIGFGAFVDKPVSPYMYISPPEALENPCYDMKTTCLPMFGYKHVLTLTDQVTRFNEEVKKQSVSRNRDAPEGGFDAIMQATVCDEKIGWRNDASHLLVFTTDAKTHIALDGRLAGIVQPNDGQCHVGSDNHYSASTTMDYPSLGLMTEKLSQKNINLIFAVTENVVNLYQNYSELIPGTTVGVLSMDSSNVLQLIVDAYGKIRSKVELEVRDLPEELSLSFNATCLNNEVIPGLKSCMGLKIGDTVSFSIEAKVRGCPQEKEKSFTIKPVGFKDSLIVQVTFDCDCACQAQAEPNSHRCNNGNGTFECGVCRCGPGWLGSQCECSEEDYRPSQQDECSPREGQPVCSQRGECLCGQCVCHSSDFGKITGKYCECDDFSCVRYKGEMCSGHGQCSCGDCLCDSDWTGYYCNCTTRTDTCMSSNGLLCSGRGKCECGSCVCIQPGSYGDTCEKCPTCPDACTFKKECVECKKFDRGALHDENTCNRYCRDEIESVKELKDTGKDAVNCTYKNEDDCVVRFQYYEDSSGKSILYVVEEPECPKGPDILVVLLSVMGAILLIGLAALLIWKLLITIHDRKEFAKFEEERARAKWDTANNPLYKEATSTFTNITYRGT
Chain of Integrin alpha-IIb/beta-3 (P08514 32-887 limits assumed): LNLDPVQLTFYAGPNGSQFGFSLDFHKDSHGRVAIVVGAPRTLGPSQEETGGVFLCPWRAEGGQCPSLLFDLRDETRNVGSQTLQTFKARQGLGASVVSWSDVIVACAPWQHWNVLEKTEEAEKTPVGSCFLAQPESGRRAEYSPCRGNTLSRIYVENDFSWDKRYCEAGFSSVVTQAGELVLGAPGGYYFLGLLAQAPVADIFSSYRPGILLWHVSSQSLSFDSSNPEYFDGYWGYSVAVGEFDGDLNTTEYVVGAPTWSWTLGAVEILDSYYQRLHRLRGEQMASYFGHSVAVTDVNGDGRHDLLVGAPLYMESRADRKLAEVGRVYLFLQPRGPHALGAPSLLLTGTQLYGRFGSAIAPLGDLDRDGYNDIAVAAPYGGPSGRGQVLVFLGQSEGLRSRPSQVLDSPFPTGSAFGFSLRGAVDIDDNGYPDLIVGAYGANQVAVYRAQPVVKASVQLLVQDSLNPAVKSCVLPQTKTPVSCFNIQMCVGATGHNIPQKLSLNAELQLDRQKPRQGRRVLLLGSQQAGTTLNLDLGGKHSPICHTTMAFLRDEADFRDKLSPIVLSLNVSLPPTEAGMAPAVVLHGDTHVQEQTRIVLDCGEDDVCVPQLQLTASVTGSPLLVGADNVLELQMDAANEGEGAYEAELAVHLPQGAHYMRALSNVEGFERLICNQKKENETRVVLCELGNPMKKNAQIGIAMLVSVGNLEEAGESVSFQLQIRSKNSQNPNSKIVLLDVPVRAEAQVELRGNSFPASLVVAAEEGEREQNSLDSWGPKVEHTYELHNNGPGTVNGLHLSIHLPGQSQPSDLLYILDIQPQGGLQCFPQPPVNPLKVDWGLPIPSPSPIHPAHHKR
Chain of Integrin alpha-IIb/beta-3 (P08514 891-1039 limits assumed): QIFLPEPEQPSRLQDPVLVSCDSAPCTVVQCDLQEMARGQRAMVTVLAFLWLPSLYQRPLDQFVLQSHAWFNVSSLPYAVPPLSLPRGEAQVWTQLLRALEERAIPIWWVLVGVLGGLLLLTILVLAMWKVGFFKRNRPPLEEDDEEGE

| Ki [1] | Ki [2] | Ki [3] | Ki [4] | Selectivity [5] | IC50 [6] | IC50 [7] | Structure (SMILES) |
| --- | --- | --- | --- | --- | --- | --- | --- |
| 19.2 µM | 3.66 µM | 10.5 µM | 21.6 µM | 0.5 |  |  | CCOC(=O)CC[C@H](NC(=O)C(Cc1ccccc1)C(=O)Nc1ccc2c(c1)OCC(=O)N2Cc1ccc(C(=N)N)cc1)C(=O)OCC (stereo not given in full) |
| 20.6 µM | 6.84 µM | 8.4 µM | 12.1 µM | 0.69 |  |  | CCOC(=O)CNC(=O)C(Cc1ccccc1)C(=O)Nc1ccc2c(c1)OCC(=O)N2Cc1ccc(C(=N)N)cc1 (stereo not given) |
| 8.8 µM | 5.19 µM | 5.5 µM | 16.3 µM | 0.3 |  |  | CCOC(=O)[C@H](Cc1ccccc1)C(=O)Nc1ccc2c(c1)OCC(=O)N2Cc1ccc(C(=N)N)cc1 |
| > 200 µM | 1.64 µM | 26.5 µM | 14.9 µM |  |  |  | CN1C(=O)C(OCc2ccc(C(=N)N)cc2)Oc2cc(C(=O)N[C@@H](CC(=O)O)c3ccccc3)ccc21 (stereo not given in full) |
| 26.8 µM | 7.3 µM | 12.1 µM | 21.3 µM | 0.57 |  |  | CCOC(=O)[C@H](C)NC(=O)C(Cc1ccccc1)C(=O)Nc1ccc2c(c1)OCC(=O)N2Cc1ccc(C(=N)N)cc1 (stereo not given in full) |
| 31.6 µM | 3.94 µM | 5.5 µM | 53.8 µM | 0.1 |  |  | N=C(N)c1ccc(CN2C(=O)COc3cc(NC(=O)C(Cc4ccccc4)C(=O)O)ccc32)cc1 (stereo not given) |
| 25.7 µM | 0.206 µM | 17.7 µM | 49.4 µM | 0.4 |  |  | N=C(N)c1ccc(CN2C(=O)COc3cc(NC(=O)C(Cc4ccccc4)C(=O)N[C@@H](CCC(=O)O)C(=O)O)ccc32)cc1 (stereo not given in full) |
| 21.1 µM | 59.1 µM | 9.6 µM | 20.6 µM | 0.5 |  |  | CCOC(=O)[C@H](C)NC(=O)[C@H](Cc1ccccc1)C(=O)Nc1ccc2c(c1)OCC(=O)N2Cc1ccc(C(=N)N)cc1 |
| 54.6 µM | 24.6 µM | 16 µM |  | 4.2 |  |  | CCOC(=O)C[C@H](NC(=O)c1ccc2c(c1)OC(OCc1ccc(C(=N)N)cc1)C(=O)N2C)c1ccccc1 (stereo not given in full) |
| 22.3 µM | 0.973 µM | 5.3 µM | 38.6 µM | 0.14 | 85 µM | 63 µM | COC(=O)C(Cc1ccccc1)C(=O)Nc1ccc2c(c1)OCC(=O)N2Cc1ccc(C(=N)N)cc1 (stereo not given) |
| 54.1 µM | 3.94 µM | 46.2 µM | 23.3 µM | 2 |  |  | CCOC(=O)CC[C@H](NC(=O)[C@H](Cc1ccccc1)C(=O)Nc1ccc2c(c1)OCC(=O)N2Cc1ccc(C(=N)N)cc1)C(=O)OCC |
